What all share (assay type): cell-based
Experiment [1] deals with IL6. The experiment can be described thus: IL-1β stimulated IL6 inhibition assay in PBMC. Particulars: PBMC, human PBMCs, IL-1β stimulation, compound overnight, IL6 by MSD after 24 hrs; for IC50: Homo sapiens, 24 h, read-out: IL1β stim IL6 inhibition IC50; for Emax: read-out: IL1β stim IL6 inhibition Ymax. The method, boiled down: (§1)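 Human PBMC at 2.0×10^6 cells/mL were pre-treated with compound overnight, then stimulated with IL-1β, LPS or R848, each at the donor-specific EC50 concentration. After 24 hrs, supernatant IL6 and/or IL8 was measured by MSD.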

Experiment [2] deals with IL8. The experiment can be described thus: IL-1β stimulated IL8 inhibition assay in PBMC. Particulars: human PBMCs, IL-1β stimulation, compound overnight, IL8 by MSD after 24 hrs; for IC50: read-out: IL1β stim IL8 inhibition IC50; for Emax: read-out: IL1β stim IL8 inhibition Ymax. The gist of the method:
as §1

Experiment [3] concerns IL6. The experiment can be described thus: LPS stimulated IL6 inhibition assay in PBMC. The settings on record: Homo sapiens, PBMC, 24 h, human PBMCs, LPS stimulation, compound overnight, IL6 by MSD after 24 hrs; for Dmax: read-out: LPS Stim IL6 inhibition Dmax; for IC50: read-out: LPS stim IL6 inhibition IC50. The method, boiled down:
as §1

Experiment [4] concerns IL6. Nature of the experiment: R848 stimulated IL6 inhibition assay in PBMC. Particulars: PBMC, human PBMCs, R848 stimulation, compound overnight, IL6 by MSD after 24 hrs; for Dmax: Homo sapiens, 24 h, read-out: R848 stim IL6 inhibition Dmax; for IC50: read-out: R848 stim IL6 inhibition IC50. The method, boiled down: as §1
Experiment [5] addresses T1, IRAK-4 (Homo sapiens, UniProt Q9NWZ3).
T1 sequence (Q9NWZ3 1-460): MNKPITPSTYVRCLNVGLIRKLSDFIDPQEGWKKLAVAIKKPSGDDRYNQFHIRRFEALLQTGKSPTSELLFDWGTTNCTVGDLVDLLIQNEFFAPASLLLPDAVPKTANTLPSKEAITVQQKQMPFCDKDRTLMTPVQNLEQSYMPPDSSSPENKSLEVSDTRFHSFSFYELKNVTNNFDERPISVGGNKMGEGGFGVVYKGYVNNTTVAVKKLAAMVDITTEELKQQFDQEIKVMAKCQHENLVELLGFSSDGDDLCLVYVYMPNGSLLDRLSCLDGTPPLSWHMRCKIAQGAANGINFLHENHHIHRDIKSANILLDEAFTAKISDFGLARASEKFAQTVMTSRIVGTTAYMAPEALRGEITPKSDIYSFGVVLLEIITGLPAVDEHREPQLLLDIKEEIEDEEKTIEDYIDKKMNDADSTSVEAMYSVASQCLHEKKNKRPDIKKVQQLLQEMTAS
Nature of the experiment: IRAK-4 ELISA, PBMC degradation. Also on record: endogenous in cells; host or cells: PBMC. Particulars: treated overnight. The gist of the method: (§2)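 Readout: IRAK-4 protein level in cell lysate, sandwich ELISA. Cells: OCI-Ly10 at 1×10^6/ml or PBMC at 2×10^6/ml, compound added same day, overnight incubation.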

Experiment [6] addresses T1, IRAK-4. The experiment can be described thus: IRAK-4 ELISA, OCI-Ly10 degradation. Also on record: endogenous in cells. Particulars: treated overnight; for Dmax: OCI-Ly10, OCI-Ly10 cells; for DC50: OCI-Ly10 cells. The method, boiled down:
as §2

Structures are written as SMILES. Some results are limits rather than exact numbers.

In the case of `CC(C)Oc1cc2c(cc1NC(=O)c1cnn3cccnc13)CN(C1CCN(CC3CCN(c4ccc5c(c4)C(=O)N(C4CCC(=O)NC4=O)C5=O)CC3)CC1)C2=O` (centres unmarked) [Example 1, N-(2-(1-((1-(2-(2,6-dioxopiperidin-3-yl)-1,3-dioxoisoindolin-5-yl)piperidin-4-yl)methyl)piperidin-4-yl)-6-isopropoxy-1-oxoisoindolin-5-yl)pyrazolo[1,5-a]pyrimidine-3-carboxamide], the IC50 in experiment [1] is < 10 nM; in experiment [2], 10 to 50 nM; in experiment [3], < 10 nM; in experiment [4] it was < 10 nM. Besides, the Emax was ≥ 90% in experiment [1] and 70 to 80% in experiment [2]. Also, the Dmax in experiment [3] was 80 to 90%; in experiment [4], ≥ 90%; in experiment [5] it was ≥ 90%; in experiment [6], ≥ 90%. Also, the DC50 in experiment [5] is < 1 nM; in experiment [6], < 10 nM. Also, in experiment [5], the “PBMC DC90” value came out at 1 nM.

Regarding `COc1cc(N2CCC(CN3CCC(N4Cc5cc(NC(=O)c6cnn7cccnc67)c(OC(C)C)cc5C4=O)CC3)CC2)cc2c1C(=O)N(C1CCC(=O)NC1=O)C2` (centres unmarked) [Example 23], the IC50 in experiment [1] was < 10 nM; in experiment [2] it was 10 to 50 nM; in experiment [3], 10 to 50 nM; in experiment [4] it was 10 to 50 nM. In addition, the figures for the Emax in experiment [1] and in experiment [2] were ≥ 90% and 80 to 90%, respectively. The Dmax in experiment [3] is 70 to 80%; in experiment [4], ≥ 90%; in experiment [5], ≥ 90%; in experiment [6], 80 to 90%. For the same compound, the 50% degradation concentration (DC50) in experiment [5] was < 1 nM; in experiment [6], < 10 nM. Moreover, the “PBMC DC90” value in experiment [5] is “A (A represents a DC90 value <10.0 nM)”.

In the case of `O=C1CCC(N2Cc3cc(N4CCC(CN5CCC(N6Cc7cc(NC(=O)c8cnn9cccnc89)c(N8CCC(N9CCC9)CC8)cc7C6=O)CC5)CC4)ccc3C2=O)C(=O)N1` (centres unmarked) [Example 97], the IC50 in experiment [1] was < 10 nM; in experiment [2], 10 to 50 nM; in experiment [3] it was < 10 nM; in experiment [4], 10 to 50 nM. For the same compound, the Emax in experiment [1] and in experiment [2] was ≥ 90% throughout. The Dmax is ≥ 90% in experiment [3], ≥ 90% in experiment [4], 80 to 90% in experiment [5] and ≥ 90% in experiment [6]. The DC50 in experiment [5] is < 1 nM; in experiment [6], < 10 nM. For the same compound, the “PBMC DC90” value in experiment [5] is recorded as “A (A represents a DC90 value <10.0 nM)”.

Regarding `O=C1CCC(N2C(=O)c3ccc(N4CC(F)(CN5CCC(n6cc7cc(NC(=O)c8cnn9cccnc89)c(OCC8CC8)cc7n6)CC5)C4)cc3C2=O)C(=O)N1` (centres unmarked) [Example 161, N-(6-(cyclopropylmethoxy)-2-(1-((1-(2-(2,6-dioxopiperidin-3-yl)-1,3-dioxoisoindolin-5-yl)-3-fluoroazetidin-3-yl)methyl)piperidin-4-yl)-2H-indazol-5-yl)pyrazolo[1,5-a]pyrimidine-3-carboxamide], the concentration for half-maximal inhibition (IC50) in experiment [1] is 10 to 50 nM; in experiment [2], ≥ 100 nM; in experiment [3], 10 to 50 nM; in experiment [4] it was 10 to 50 nM. Also, the Emax in experiment [1] was 80 to 90%. Also, the Dmax is 70 to 80% in experiment [3], ≥ 90% in experiment [4], ≥ 90% in experiment [5] and ≥ 90% in experiment [6]. The DC50 in experiment [5] was 1 to 5 nM; in experiment [6], 10 to 50 nM. In experiment [5], the “PBMC DC90” value was “B (B represents a DC90 value ≥10.0 nM and <25.0 nM)”.

`O=C1CCC(NC(=O)c2ccc(N3CC(CN4CCC(n5cc6cc(NC(=O)c7cnn8cccnc78)c(OCC7CC7)cc6n5)CC4)C3)cc2F)C(=O)N1` (centres unmarked) [Example 287]: in experiment [1], the IC50 was in the range of 50 to 100 nM and the Emax is ≥ 90%. Moreover, in experiment [2], the IC50 was ≥ 100 nM and the Emax is < 70%. Besides, in experiment [5], the half-maximal degradation concentration (DC50) was in the range of 1 to 5 nM; the Dmax was ≥ 90%; the “PBMC DC90” value was “B (B represents a DC90 value ≥10.0 nM and <25.0 nM)”. In addition, in experiment [6], the Dmax is ≥ 90% and the DC50 was < 10 nM.

In the case of `O=C1CCC(NC(=O)c2ccc(N3CCC(CN4CCC(n5cc6cc(NC(=O)c7cnn8cccnc78)c(OCC7CC7)cc6n5)CC4)CC3)cc2F)C(=O)N1` (centres unmarked) [Example 288], in experiment [1], the IC50 was in the range of 10 to 50 nM and the Emax was ≥ 90%. Also, in experiment [2], the IC50 lay within 50 to 100 nM and the Emax lay in the range of 70 to 80%. For the same compound, in experiment [5], the DC50 was < 1 nM, the Dmax is ≥ 90% and the “PBMC DC90” value is on record as “A (A represents a DC90 value <10.0 nM)”. In addition, in experiment [6], the Dmax was ≥ 90% and the DC50 is < 10 nM.

On to `COc1cc2nn([C@H]3CC[C@H](N(C)C4CN(c5ccc6c(c5)C(=O)N(C5CCC(=O)NC5=O)C6=O)C4)CC3)cc2cc1NC(=O)c1cnn2cccnc12` (some centres unmarked) [Example 334], for which, in experiment [1], the IC50 was < 10 nM and the Emax was ≥ 90%. In experiment [2], the IC50 lay in the range of 10 to 50 nM and the Emax is < 70%. In experiment [5], the 50% degradation concentration (DC50) is < 1 nM, the Dmax was ≥ 90% and the “PBMC DC90” value is given as “A (A represents a DC90 value <10.0 nM)”. Besides, in experiment [6], the Dmax is ≥ 90% and the DC50 is < 10 nM.

Take `COc1cc2nn([C@H]3CC[C@H](N(C)C4CCN(c5ccc6c(c5)C(=O)N(C5CCC(=O)NC5=O)C6=O)CC4)CC3)cc2cc1NC(=O)c1cnn2cccnc12` (some centres unmarked) [Example 335]: in experiment [1], the half-inhibitory concentration (IC50) was < 10 nM and the Emax was ≥ 90%. In addition, the IC50 in experiment [2] is ≥ 100 nM. Also, in experiment [5], the half-maximal degradation concentration (DC50) was < 1 nM, the Dmax is ≥ 90% and the “PBMC DC90” value is “A (A represents a DC90 value <10.0 nM)”. Also, in experiment [6], the Dmax is ≥ 90% and the 50% degradation concentration (DC50) was < 10 nM.

Consider `COc1cc2nn([C@H]3CC[C@H](N(C)C4CN(c5ccc6c(c5)CN(C5CCC(=O)NC5=O)C6=O)C4)CC3)cc2cc1NC(=O)c1cnn2cccnc12` (some centres unmarked) [Example 337], for which, in experiment [1], the IC50 was < 10 nM and the Emax was ≥ 90%. Moreover, in experiment [2], the IC50 is < 10 nM and the Emax was < 70%. In experiment [5], the half-maximal degradation concentration (DC50) was 1 to 5 nM, the Dmax was ≥ 90% and the “PBMC DC90” value was “A (A represents a DC90 value <10.0 nM)”. In addition, in experiment [6], the Dmax is ≥ 90% and the 50% degradation concentration (DC50) was < 10 nM.

Take `COc1cc2nn([C@H]3CC[C@H](N(C)CC#Cc4ccc5c(c4)C(=O)N(C4CCC(=O)NC4=O)C5=O)CC3)cc2cc1NC(=O)c1cnn2cccnc12` (some centres unmarked) [Example 338]: in experiment [1], the concentration for half-maximal inhibition (IC50) is < 10 nM and the Emax was ≥ 90%. Moreover, in experiment [2], the IC50 is 10 to 50 nM and the Emax was < 70%. Moreover, in experiment [5], the DC50 was < 1 nM, the Dmax was ≥ 90% and the “PBMC DC90” value was “A (A represents a DC90 value <10.0 nM)”. Moreover, in experiment [6], the Dmax was ≥ 90% and the half-maximal degradation concentration (DC50) was < 10 nM.

On to `CN(C1CN(c2ccc3c(c2)CN(C2CCC(=O)NC2=O)C3=O)C1)[C@H]1CC[C@H](n2cc3cc(NC(=O)c4cnn5cccnc45)c(OCC4CC4)cc3n2)CC1` (some centres unmarked) [Example 339], for which, in experiment [1], the IC50 is < 10 nM and the Emax was ≥ 90%. Also, in experiment [2], the IC50 lay within 10 to 50 nM and the Emax lay in the range of 70 to 80%. In experiment [5], the DC50 is < 1 nM, the Dmax is ≥ 90% and the “PBMC DC90” value is “A (A represents a DC90 value <10.0 nM)”. Also, in experiment [6], the Dmax was ≥ 90% and the DC50 is < 10 nM.

On to `COc1cc2nn(C3CCN(CC4CN(c5cccc6c5n(C)c(=O)n6C5CCC(=O)NC5=O)C4)CC3)cc2cc1NC(=O)c1cnn2cccnc12` (centres unmarked) [Example 379], for which, in experiment [1], the concentration for half-maximal inhibition (IC50) was < 10 nM and the Emax lay in the range of 80 to 90%. In experiment [2], the 50% inhibitory concentration (IC50) was in the range of 10 to 50 nM and the Emax was 70 to 80%. Besides, in experiment [5], the DC50 is < 1 nM, the Dmax was ≥ 90% and the “PBMC DC90” value is given as “A (A represents a DC90 value <10.0 nM)”. Besides, in experiment [6], the Dmax is ≥ 90% and the half-maximal degradation concentration (DC50) was < 10 nM.
